The results in this text go back to patent US20230172201A1, “Use of 4-Phenylbutyric Acid and/or 3-Phenylbutyric Acid and/or 2-Phenylbutyric Acid in Preventing and Treating Cryptogamic Diseases” (Institut National de Recherche Pour L'Agriculture, …, priority 2020, published 2023).

This assay relates to Botrytis cinerea (BMM strain). Nature of the assay: Mycelial development in liquid medium, absorbance at 600 nm (nephelometry). Format: cell-based. As to conditions: Botrytis cinerea, 96 h; 1 mM; incubation for 4 days; Example 4; read-out: degree of inhibition.

SMILES strings stand for the structures.

Take `CCC(C(=O)O)c1ccccc1` (stereo not shown) [2-PBA, 2-Phenylbutyric acid]: the inhibition at 1000 µM is ~70%.
